Measured values as given in publication PMC9005681, “Use of AD Informer Set compounds to explore validity of novel targets in Alzheimer's disease pathology” (Alzheimer's & Dementia : Translational Research & Clinical …, 2022).
“And” between values parts separate entries of the source, which are not always exact repeats. Identical values can stand only once.

Assays:
Test in all cases: PDSP GPCR panel primary binding assays at 10 μM
Conditions in all cases: primary assay
[1] = target: T1, cloned human or rodent CNS receptors, channels, and transporters (PDSP panel) (Homo sapiens, UniProt P23975)
T1 construct: expressed in transfected cells
Outline: (§1)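 Competition binding with radiolabeled standard ligands, single 10 μM concentration, four replicates. Targets showing over 50% displacement were followed up with 11-point titrations in triplicate.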

[2] = target: T2, cloned human or rodent CNS receptors, channels, and transporters (PDSP panel) (Homo sapiens, UniProt P47898)
T2 construct: expressed in transfected cells
Outline: as §1

[3] = target: T3, cloned human or rodent CNS receptors, channels, and transporters (PDSP panel) (Homo sapiens, UniProt P35368)
T3 construct: expressed in transfected cells
T3 sequence (P35368 1-520): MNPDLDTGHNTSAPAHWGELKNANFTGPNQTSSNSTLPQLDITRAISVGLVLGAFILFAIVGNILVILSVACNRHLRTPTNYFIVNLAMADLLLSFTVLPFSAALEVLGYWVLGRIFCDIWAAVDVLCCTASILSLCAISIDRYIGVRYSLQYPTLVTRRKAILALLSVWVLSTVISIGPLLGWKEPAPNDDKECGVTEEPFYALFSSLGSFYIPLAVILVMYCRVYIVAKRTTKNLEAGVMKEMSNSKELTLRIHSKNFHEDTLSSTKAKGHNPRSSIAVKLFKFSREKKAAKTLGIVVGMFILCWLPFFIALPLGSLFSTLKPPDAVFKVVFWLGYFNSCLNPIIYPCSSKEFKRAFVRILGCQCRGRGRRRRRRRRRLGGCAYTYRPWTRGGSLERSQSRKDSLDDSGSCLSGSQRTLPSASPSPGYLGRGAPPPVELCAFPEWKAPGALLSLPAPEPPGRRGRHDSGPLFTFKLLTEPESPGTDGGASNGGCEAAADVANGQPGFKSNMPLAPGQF
Outline: as §1

[4] = target: T4, cloned human or rodent CNS receptors, channels, and transporters (PDSP panel) (Homo sapiens, UniProt P11229)
T4 construct: expressed in transfected cells
T4 sequence (P11229 1-460): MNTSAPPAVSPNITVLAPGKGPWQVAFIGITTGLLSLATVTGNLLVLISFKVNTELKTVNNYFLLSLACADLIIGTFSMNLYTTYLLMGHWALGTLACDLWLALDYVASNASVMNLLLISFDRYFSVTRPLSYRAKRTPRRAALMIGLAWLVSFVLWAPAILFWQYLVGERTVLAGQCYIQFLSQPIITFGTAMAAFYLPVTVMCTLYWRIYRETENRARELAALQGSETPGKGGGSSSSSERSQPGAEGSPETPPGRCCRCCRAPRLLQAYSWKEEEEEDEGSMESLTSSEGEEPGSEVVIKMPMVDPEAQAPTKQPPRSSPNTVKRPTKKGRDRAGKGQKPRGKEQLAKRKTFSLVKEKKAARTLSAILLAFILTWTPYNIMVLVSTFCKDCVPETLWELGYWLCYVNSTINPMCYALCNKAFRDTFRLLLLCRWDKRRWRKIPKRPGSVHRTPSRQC
Outline: as §1

[5] = target: T5, cloned human or rodent CNS receptors, channels, and transporters (PDSP panel) (Homo sapiens, UniProt P25100)
T5 construct: expressed in transfected cells
T5 sequence (P25100 1-572): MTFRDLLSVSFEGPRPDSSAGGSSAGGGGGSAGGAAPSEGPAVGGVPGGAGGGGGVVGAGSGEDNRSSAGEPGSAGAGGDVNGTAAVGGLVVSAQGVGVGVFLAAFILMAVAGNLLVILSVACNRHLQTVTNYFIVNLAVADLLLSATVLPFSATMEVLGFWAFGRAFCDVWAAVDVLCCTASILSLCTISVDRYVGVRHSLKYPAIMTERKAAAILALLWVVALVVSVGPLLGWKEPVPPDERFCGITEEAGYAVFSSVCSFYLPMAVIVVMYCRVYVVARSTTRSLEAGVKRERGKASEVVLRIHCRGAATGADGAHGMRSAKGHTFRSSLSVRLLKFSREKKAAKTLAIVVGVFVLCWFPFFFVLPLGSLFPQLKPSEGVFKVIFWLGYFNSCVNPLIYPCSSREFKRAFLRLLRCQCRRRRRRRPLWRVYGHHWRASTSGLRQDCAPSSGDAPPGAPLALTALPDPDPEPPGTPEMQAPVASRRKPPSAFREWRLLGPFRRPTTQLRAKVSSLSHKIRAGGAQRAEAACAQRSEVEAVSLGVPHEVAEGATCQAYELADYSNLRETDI
Outline: as §1

[6] = target: T6, cloned human or rodent CNS receptors, channels, and transporters (PDSP panel) (Homo sapiens, UniProt P28223)
T6 construct: expressed in transfected cells
Outline: as §1

[7] = target: T7, cloned human or rodent CNS receptors, channels, and transporters (PDSP panel) (Homo sapiens, UniProt P21728)
T7 construct: expressed in transfected cells
Outline: as §1

T2 sequence (P47898 whole entry): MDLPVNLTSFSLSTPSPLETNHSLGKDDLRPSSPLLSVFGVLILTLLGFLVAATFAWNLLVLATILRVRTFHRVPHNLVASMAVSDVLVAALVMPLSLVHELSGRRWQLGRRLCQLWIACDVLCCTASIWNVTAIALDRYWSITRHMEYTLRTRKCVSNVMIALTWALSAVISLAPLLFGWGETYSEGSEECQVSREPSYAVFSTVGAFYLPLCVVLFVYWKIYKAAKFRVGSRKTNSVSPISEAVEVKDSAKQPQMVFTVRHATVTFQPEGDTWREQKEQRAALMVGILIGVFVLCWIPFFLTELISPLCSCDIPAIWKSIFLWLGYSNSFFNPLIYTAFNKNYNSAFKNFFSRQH
T6 sequence (P28223 whole entry): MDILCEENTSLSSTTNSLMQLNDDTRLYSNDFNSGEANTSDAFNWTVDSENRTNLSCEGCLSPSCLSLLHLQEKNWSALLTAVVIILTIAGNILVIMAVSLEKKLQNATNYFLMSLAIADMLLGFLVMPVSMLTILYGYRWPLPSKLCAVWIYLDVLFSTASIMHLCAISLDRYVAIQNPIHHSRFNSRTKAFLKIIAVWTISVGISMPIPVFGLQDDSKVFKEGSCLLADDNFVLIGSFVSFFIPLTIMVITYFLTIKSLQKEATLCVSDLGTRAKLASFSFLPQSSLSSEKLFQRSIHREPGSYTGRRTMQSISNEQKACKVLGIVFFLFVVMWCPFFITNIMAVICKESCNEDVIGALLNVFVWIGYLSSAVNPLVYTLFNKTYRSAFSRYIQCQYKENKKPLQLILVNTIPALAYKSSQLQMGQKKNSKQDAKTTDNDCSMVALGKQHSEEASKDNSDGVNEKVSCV
T7 sequence (P21728 whole entry): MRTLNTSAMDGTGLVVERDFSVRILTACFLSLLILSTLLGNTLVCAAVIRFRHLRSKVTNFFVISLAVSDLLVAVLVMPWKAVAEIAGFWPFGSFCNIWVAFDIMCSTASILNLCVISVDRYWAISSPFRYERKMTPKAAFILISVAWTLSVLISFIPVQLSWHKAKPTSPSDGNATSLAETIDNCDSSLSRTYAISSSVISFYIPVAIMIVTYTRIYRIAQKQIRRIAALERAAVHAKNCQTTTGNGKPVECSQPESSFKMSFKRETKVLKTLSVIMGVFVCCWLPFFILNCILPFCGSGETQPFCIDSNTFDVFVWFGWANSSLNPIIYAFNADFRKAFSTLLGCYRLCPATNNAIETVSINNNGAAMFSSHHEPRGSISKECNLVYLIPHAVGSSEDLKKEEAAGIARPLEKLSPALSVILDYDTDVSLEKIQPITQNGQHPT
T1 sequence (P23975 whole entry): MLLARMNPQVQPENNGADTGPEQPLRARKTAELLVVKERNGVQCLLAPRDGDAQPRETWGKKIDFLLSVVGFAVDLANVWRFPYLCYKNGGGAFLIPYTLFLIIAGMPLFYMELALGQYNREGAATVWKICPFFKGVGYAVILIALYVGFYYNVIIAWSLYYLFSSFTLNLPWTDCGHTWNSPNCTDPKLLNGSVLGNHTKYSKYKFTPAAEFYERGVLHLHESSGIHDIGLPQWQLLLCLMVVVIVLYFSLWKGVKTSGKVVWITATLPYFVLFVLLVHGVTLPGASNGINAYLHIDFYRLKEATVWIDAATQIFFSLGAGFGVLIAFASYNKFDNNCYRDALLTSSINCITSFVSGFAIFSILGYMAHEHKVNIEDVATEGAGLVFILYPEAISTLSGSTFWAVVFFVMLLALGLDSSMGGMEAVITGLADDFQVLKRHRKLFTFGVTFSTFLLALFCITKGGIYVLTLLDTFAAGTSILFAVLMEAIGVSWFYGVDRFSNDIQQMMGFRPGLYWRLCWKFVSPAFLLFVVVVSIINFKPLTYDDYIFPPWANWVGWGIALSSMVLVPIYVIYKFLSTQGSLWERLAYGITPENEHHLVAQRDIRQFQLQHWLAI

Cl.NC(=O)c1cnc(N[C@@H]2CCCC[C@@H]2N)nc1Nc1cccc(-n2nccn2)c1 [UNC10302682A, P505-15 (PRT06207 HCl)]
Inhibition 1 ([1]; Receptor NET, 10 μM): 84.07% and 84.11% | Inhibition 2 ([1]; Receptor NET, 10 μM): 85.74% and 79.57% | Inhibition 3 ([1]; Receptor NET, 10 μM): 83.91% and 77.54% | Inhibition 4 ([1]; Receptor NET, 10 μM): 89.74% | Mean % ([1]; Receptor NET, 10 μM, mean of Inhibition 1-4): 85.87% and 80.58% | Inhibition 1 ([2]; Receptor 5-HT5A, 10 μM): -3.51% | Inhibition 2 ([2]; Receptor 5-HT5A, 10 μM): -8.26% | Inhibition 3 ([2]; Receptor 5-HT5A, 10 μM): 4.4% | Inhibition 4 ([2]; Receptor 5-HT5A, 10 μM): 6.38% | Mean % ([2]; Receptor 5-HT5A, 10 μM, mean of Inhibition 1-4): -0.25% | Inhibition 1 ([3]; Receptor Alpha1B, 10 μM): 60.7% | Inhibition 2 ([3]; Receptor Alpha1B, 10 μM): 57.49% | Inhibition 3 ([3]; Receptor Alpha1B, 10 μM): 49.58% | Inhibition 4 ([3]; Receptor Alpha1B, 10 μM): 52.45% | Mean % ([3]; Receptor Alpha1B, 10 μM, mean of Inhibition 1-4): 55.06% | Inhibition 1 ([4]; Receptor M1, 10 μM): 35.84% | Inhibition 2 ([4]; Receptor M1, 10 μM): 24.74% | Inhibition 3 ([4]; Receptor M1, 10 μM): 0.85% | Inhibition 4 ([4]; Receptor M1, 10 μM): 16.46% | Mean % ([4]; Receptor M1, 10 μM, mean of Inhibition 1-4): 19.47% | Inhibition 1 ([5]; Receptor Alpha1D, 10 μM): 22.56% | Inhibition 2 ([5]; Receptor Alpha1D, 10 μM): 13.18% | Inhibition 3 ([5]; Receptor Alpha1D, 10 μM): 20.43% | Inhibition 4 ([5]; Receptor Alpha1D, 10 μM): 14.74% | Mean % ([5]; Receptor Alpha1D, 10 μM, mean of Inhibition 1-4): 17.73% | Inhibition 1 ([6]; Receptor 5-HT2A, 10 μM): 13.95% | Inhibition 2 ([6]; Receptor 5-HT2A, 10 μM): 2.61% | Inhibition 3 ([6]; Receptor 5-HT2A, 10 μM): 8.53% | Inhibition 4 ([6]; Receptor 5-HT2A, 10 μM): 0.63% | Mean % ([6]; Receptor 5-HT2A, 10 μM, mean of Inhibition 1-4): 6.43% | Inhibition 1 ([7]; Receptor D1, 10 μM): 10.12% | Inhibition 2 ([7]; Receptor D1, 10 μM): 11.25% | Inhibition 3 ([7]; Receptor D1, 10 μM): 12.71% | Inhibition 4 ([7]; Receptor D1, 10 μM): 8.82% | Mean % ([7]; Receptor D1, 10 μM, mean of Inhibition 1-4): 10.73%

CC(=O)N1CCC(NC(=O)NC23CC4CC(CC(C4)C2)C3)CC1 [UNC10302683A, AR9281]
Mean % ([1]; NET, mean inhibition): 6.47% and 1.67% | Inhibition 1 ([1]; NET, replicate 1): -14.58% and 25.31% | Inhibition 2 ([1]; NET, replicate 2): -2.12% and 13.5% | Inhibition 3 ([1]; NET, replicate 3): 2.28% and -19.09% | Inhibition 4 ([1]; NET, replicate 4): 40.3% and -13.05% | Mean % ([2]; 5-HT5A, mean inhibition): -4.79% and -3.44% | Inhibition 1 ([2]; 5-HT5A, replicate 1): 13.38% and 13.31% | Inhibition 2 ([2]; 5-HT5A, replicate 2): 8.95% and -14.87% | Inhibition 3 ([2]; 5-HT5A, replicate 3): -49.4% and -7.36% | Inhibition 4 ([2]; 5-HT5A, replicate 4): 7.91% and -4.85% | Mean % ([3]; Alpha1B, mean inhibition): 5.33% | Inhibition 1 ([3]; Alpha1B, replicate 1): 32.86% | Inhibition 2 ([3]; Alpha1B, replicate 2): -1.86% | Inhibition 3 ([3]; Alpha1B, replicate 3): 1.69% | Inhibition 4 ([3]; Alpha1B, replicate 4): -11.37% | Mean % ([4]; M1, mean inhibition): 7.62% | Inhibition 1 ([4]; M1, replicate 1): 23.24% | Inhibition 2 ([4]; M1, replicate 2): 6.49% | Inhibition 3 ([4]; M1, replicate 3): -4.8% | Inhibition 4 ([4]; M1, replicate 4): 5.55% | Mean % ([5]; Alpha1D, mean inhibition): -8.81% | Inhibition 1 ([5]; Alpha1D, replicate 1): 7.07% | Inhibition 2 ([5]; Alpha1D, replicate 2): -12.11% | Inhibition 3 ([5]; Alpha1D, replicate 3): -12.82% | Inhibition 4 ([5]; Alpha1D, replicate 4): -17.37% | Mean % ([6]; 5-HT2A, mean inhibition): -3.07% | Inhibition 1 ([6]; 5-HT2A, replicate 1): -2.98% | Inhibition 2 ([6]; 5-HT2A, replicate 2): 1.29% | Inhibition 3 ([6]; 5-HT2A, replicate 3): -10.71% | Inhibition 4 ([6]; 5-HT2A, replicate 4): 0.14% | Mean % ([7]; D1, mean inhibition): -14.57% | Inhibition 1 ([7]; D1, replicate 1): -3.64% | Inhibition 2 ([7]; D1, replicate 2): -20.64% | Inhibition 3 ([7]; D1, replicate 3): -32.3% | Inhibition 4 ([7]; D1, replicate 4): -1.7%
